{"source": "patent US9233978B2", "about": "“6-fused heteroaryldihydropyrimidines for the treatment and prophylaxis of hepatitis B virus infection” (Hoffmann-La Roche Inc., priority 2014, dated 2016)", "test_system": "HBV", "assay": "Anti-HBV activity in vitro, HepG2.2.15 cells, extracellular HBV DNA by qPCR", "format": "cell-based", "conditions": "Hepatitis B virus, HepG2.2.15, 120 h, HepG2.2.15 cells; HBV replication inhibited by 50%, extracellular HBV DNA by qPCR; five days after compound treatment; read-out: EC50", "source_text": "HepG2.2.15 and HepDE19 are stably-transfected cell lines containing the HBV genome. Both cell lines are derived from the hepatoblastoma cell line Hep G2 (American Type Culture Collection, ATCC® HB-8065™) by the published procedures described in references: MA Selles et al. Proc. Natl. Acad. Sci. USA 1987, 84, 1005-1009 and H Guo et al. Journal of Virology 2007, 81, 12472-12484, respectively. Both cell lines were maintained in Dulbecco's modified Eagle's medium (DMEM)-F12 medium supplemented with 10% fetal bovine serum, 100 U/mL penicillin, 100 μg/mL streptomycin, and 0.5 mg/mL of G418.\nWhile HepG2.2.15 cells constitutively support HBV replication and production of virus particles, HepDE19 cells are inducible by tetracycline. Addition of 1 μg/mL tetracycline in culture medium suppresses HBV replication in HepDE19 cells, whereas switching to tetracycline-free medium resumes this process.\nHepG2.2.15 cells were seeded into 96-well plates (3×10^4 cells in 100 μL media per well) and incubated overnight at 37° C. The test compounds were serially half-log diluted in DMSO, then diluted 100 times in culture media. 100 μL of diluted compounds were added into the plates to reach 0.5% final concentration of DMSO in every well. Five days after compound treatment, culture supernatant was collected for further analysis.\nFor quantitative PCR detection of extracellular HBV DNA, 100 μL of culture supernatant was collected and processed in MagNA Pure 96 Nucleic Acid Purification System (Roche Applied Science) for viral DNA extraction. The extracted samples were subjected to HBV DNA quantification by qPCR.", "note": "pEC50: −log10 of the molar value.", "data": [{"molecule": "CCOC(=O)C1=C(CN2CCN3C(=O)N(C(C)(C)C)C[C@H]3[C@@H]2CO)NC(c2nccs2)=N[C@H]1c1cccc(F)c1Cl", "note": "(single isomer, unassigned) [Example 103A]", "values": [{"measurement": "pEC50", "value": 6.85}]}, {"molecule": "CCOC(=O)C1=C(CN2CCN3C(=O)N([C@@H](C)CC(=O)O)C[C@@H]3C2)NC(c2nccs2)=N[C@H]1c1cccc(F)c1Cl", "note": "[Example 58, (R)-6-[(S)-2-((S)-2-Carboxy-1-methyl-ethyl)-3-oxo-hexahydro-imidazo[1,5-a]pyrazin-7-ylmethyl]-4-(2-chloro-3-fluoro-phenyl)-2-thiazol-2-yl-1,4-dihydro-pyrimidine-5-carboxylic acid ethyl ester]", "values": [{"measurement": "pEC50", "value": 7.72}]}, {"molecule": "CCOC(=O)C1=C(CN2CCN3C(=O)N([C@H](C)CC(=O)O)C[C@@H]3C2)NC(c2nccs2)=N[C@H]1c1cccc(F)c1Cl", "note": "[Example 57, (R)-6-[(S)-2-((R)-2-Carboxy-1-methyl-ethyl)-3-oxo-hexahydro-imidazo[1,5-a]pyrazin-7-ylmethyl]-4-(2-chloro-3-fluoro-phenyl)-2-thiazol-2-yl-1,4-dihydro-pyrimidine-5-carboxylic acid ethyl ester]", "values": [{"measurement": "pEC50", "value": 7.49}]}, {"molecule": "COC(=O)C1=C(CN2CCN3[C@@H](CNS3(=O)=O)C2)NC(c2nccs2)=N[C@H]1c1ccc(F)cc1Cl", "note": "[Example 18, Methyl (4R)-6-[[(3aR)-1,1-dioxo-2,3,3a,4,6,7-hexahydro-[1,2,5]thiadiazolo[2,3-a]pyrazin-5-yl]methyl]-4-(2-chloro-4-fluoro-phenyl)-2-thiazol-2-yl-1,4-dihydropyrimidine-5-carboxylate]", "values": [{"measurement": "pEC50", "value": 6.97}]}, {"molecule": "CCOC(=O)C1=C(CN2CCN3C(=O)N(C(C)(C)C)C[C@H]3[C@@H]2C(=O)O)NC(c2nccs2)=N[C@H]1c1cccc(F)c1Cl", "note": "(single isomer, unassigned) [Example 87A]", "values": [{"measurement": "pEC50", "value": 7.21}]}, {"molecule": "CCOC(=O)C1=C(CN2CCN3C(=O)N(CC4CC4)C[C@H]3[C@@H]2C(=O)O)NC(c2nccs2)=N[C@H]1c1cccc(F)c1Cl", "note": "(single isomer, unassigned) [Example 97A]", "values": [{"measurement": "pEC50", "value": 7.43}]}, {"molecule": "COC(=O)C1=C(CN2CCN3C(=O)N(CCCC(C)(C)CO)CC3C2)NC(c2nccs2)=N[C@H]1c1ccc(F)cc1Cl", "note": "(stereo partly drawn) [Example 69, Methyl (4R)-4-(2-chloro-4-fluoro-phenyl)-6-[[2-(5-hydroxy-4,4-dimethyl-pentyl)-3-oxo-5,6,8,8a-tetrahydro-1H-imidazo[1,5-a]pyrazin-7-yl]methyl]-2-thiazol-2-yl-1,4-dihydropyrimidine-5-carboxylate]", "values": [{"measurement": "pEC50", "value": 7.89}]}, {"molecule": "COC(=O)C1=C(CN2CCN3C(=O)OC(C)(C)[C@@]3(CC(=O)O)C2)NC(c2nccs2)=N[C@H]1c1ccc(F)cc1Cl", "note": "(single isomer, unassigned) [Example 90B]", "values": [{"measurement": "pEC50", "value": 6.52}]}, {"molecule": "CCOC(=O)C1=C(CN2CCN3C(=O)N(CC(C)(C)O)C[C@H]3C2)NC(c2nccs2)=N[C@H]1c1cccc(F)c1Cl", "note": "(single isomer, unassigned) [Example 106A]", "values": [{"measurement": "pEC50", "value": 7.49}]}, {"molecule": "COC(=O)C1=C(CN2CCN3C(=O)N([C@H]4CCC[C@@H]4C(=O)O)C[C@@H]3C2)NC(c2nccs2)=N[C@H]1c1ccc(F)cc1Cl", "note": "[Example 52, (1S,2S)-2-[(8aS)-7-[[(4R)-4-(2-chloro-4-fluoro-phenyl)-5-methoxycarbonyl-2-thiazol-2-yl-1,4-dihydropyrimidin-6-yl]methyl]-3-oxo-5,6,8,8a-tetrahydro-1H-imidazo[1,5-a]pyrazin-2-yl]cyclopentanecarboxylic acid]", "values": [{"measurement": "pEC50", "value": 7.52}]}, {"molecule": "CCOC(=O)C1=C(CN2CCN3C(=O)N(CC(F)(F)C(=O)O)C[C@@H]3C2)NC(c2nccs2)=N[C@H]1c1ccc(F)c(F)c1C", "note": "[Example 96, (S)-6-[(S)-2-(2-Carboxy-2,2-difluoro-ethyl)-3-oxo-hexahydro-imidazo[1,5-a]pyrazin-7-ylmethyl]-4-(3,4-difluoro-2-methyl-phenyl)-2-thiazol-2-yl-1,4-dihydro-pyrimidine-5-carboxylic acid ethyl ester]", "values": [{"measurement": "pEC50", "value": 6.82}]}, {"molecule": "COC(=O)C1=C(CN2CCN3C(=O)NC(=O)[C@H]3C2)NC(c2nccs2)=N[C@H]1c1ccc(F)cc1Cl", "note": "[Example 15, Methyl (4R)-6-[[(8aR)-1,3-dioxo-5,6,8,8a-tetrahydroimidazo[1,5-a]pyrazin-7-yl]methyl]-4-(2-chloro-4-fluoro-phenyl)-2-thiazol-2-yl-1,4-dihydropyrimidine-5-carboxylate]", "values": [{"measurement": "pEC50", "value": 6.96}]}, {"molecule": "CCOC(=O)C1=C(CN2CCN3C(=O)N(C(C)(C)C)C[C@@H]3[C@H]2C(=O)OC)NC(c2nccs2)=N[C@H]1c1cccc(F)c1Cl", "note": "(single isomer, unassigned) [Compound 87B-1]", "values": [{"measurement": "pEC50", "value": 8.40}]}, {"molecule": "COC(=O)C1=C(CN2CCN3C(=O)CC[C@H]3C2)NC(c2nccs2)=N[C@H]1c1ccc(F)cc1Cl", "note": "[Example 5, Methyl (4R)-6-[[(8aS)-6-oxo-1,3,4,7,8,8a-hexahydropyrrolo[1,2-a]pyrazin-2-yl]methyl]-4-(2-chloro-4-fluoro-phenyl)-2-thiazol-2-yl-1,4-dihydropyrimidine-5-carboxylate]", "values": [{"measurement": "pEC50", "value": 6.80}]}, {"molecule": "COC(=O)C1=C(CN2CCN3C(=O)N(C(C)(C)C)C[C@H]3[C@@H]2C(=O)O)NC(c2nccs2)=N[C@H]1c1ccc(F)c(F)c1C", "note": "(single isomer, unassigned) [Example 88A]", "values": [{"measurement": "pEC50", "value": 6.17}]}, {"molecule": "COC(=O)C1=C(CN2CCN3C(=O)OCCC3C2)NC(c2nccs2)=N[C@H]1c1ccc(F)cc1Cl", "note": "(stereo partly drawn) [Example 1, Methyl (4R)-4-(2-chloro-4-fluoro-phenyl)-6-[(6-oxo-1,3,4,8,9,9a-hexahydropyrazino[1,2-c][1,3]oxazin-2-yl)methyl]-2-thiazol-2-yl-1,4-dihydropyrimidine-5-carboxylate]", "values": [{"measurement": "pEC50", "value": 6.98}]}, {"molecule": "COC(=O)C1=C(CN2CCN3C(=O)N([C@H]4C[C@@H](C(=O)O)C4)CC3C2)NC(c2nccs2)=N[C@H]1c1ccc(F)cc1Cl", "note": "(stereo in doubt) [Example 40, 3-[(8aR)-7-[[(4R)-4-(2-chloro-4-fluoro-phenyl)-5-methoxycarbonyl-2-thiazol-2-yl-1,4-dihydropyrimidin-6-yl]methyl]-3-oxo-5,6,8,8a-tetrahydro-1H-imidazo[1,5-a]pyrazin-2-yl]cyclobutanecarboxylic acid]", "values": [{"measurement": "pEC50", "value": 7.47}]}, {"molecule": "CCOC(=O)C1=C(CN2CCN3C(=O)CC[C@@H]3C2)NC(c2nccs2)=N[C@H]1c1ccc(F)c(F)c1", "note": "[Example 9, Ethyl (4 S)-6-[[(8aR)-6-oxo-1,3,4,7,8,8a-hexahydropyrrolo[1,2-a]pyrazin-2-yl]methyl]-4-(3,4-difluorophenyl)-2-thiazol-2-yl-1,4-dihydropyrimidine-5-carboxylate]", "values": [{"measurement": "pEC50", "value": 7.19}]}, {"molecule": "CCOC(=O)C1=C(CN2CCN3C(=O)CCCC3C2)NC(c2nccs2)=N[C@H]1c1cccc(F)c1Cl", "note": "(stereo partly drawn) [Example 10, Ethyl (4R)-4-(2-chloro-3-fluoro-phenyl)-6-[(6-oxo-3,4,7,8,9,9a-hexahydro-1H-pyrido[1,2-a]pyrazin-2-yl)methyl]-2-thiazol-2-yl-1,4-dihydropyrimidine-5-carboxylate]", "values": [{"measurement": "pEC50", "value": 7.24}]}, {"molecule": "COC(=O)C1=C(CN2CCN3C(=O)CC[C@@H]3C2)NC(c2nccs2)=N[C@H]1c1ccc(F)cc1Cl", "note": "[Example 6, Methyl (4R)-6-[[(8aR)-6-oxo-1,3,4,7,8,8a-hexahydropyrrolo[1,2-a]pyrazin-2-yl]methyl]-4-(2-chloro-4-fluoro-phenyl)-2-thiazol-2-yl-1,4-dihydropyrimidine-5-carboxylate]", "values": [{"measurement": "pEC50", "value": 7.85}]}, {"molecule": "COC(=O)C1=C(CN2CCN3C(=O)COCC3C2)NC(c2nccs2)=N[C@H]1c1ccc(F)cc1Cl", "note": "(stereo partly drawn) [Example 2, Methyl (4R)-4-(2-chloro-4-fluoro-phenyl)-6-[(4-oxo-6,7,9,9a-tetrahydro-1H-pyrazino[2,1-c][1,4]oxazin-8-yl)methyl]-2-thiazol-2-yl-1,4-dihydropyrimidine-5-carboxylate]", "values": [{"measurement": "pEC50", "value": 7.27}]}, {"molecule": "CCOC(=O)C1=C(CN2CCN3C(=O)N(C(C)C)C[C@H]3C2)NC(c2nccs2)=N[C@H]1c1cccc(F)c1Cl", "note": "(single isomer, unassigned) [Example 104A]", "values": [{"measurement": "pEC50", "value": 6.88}]}, {"molecule": "COC(=O)C1=C(CN2CCN3C(=O)N(CC(C)(C)C(=O)O)C[C@@H]3C2)NC(c2nccs2)=NC1c1ccc(Cl)cc1", "note": "(mixture of isomers) [Example 77, 3-[(8aS)-7-[[4-(4-chlorophenyl)-5-methoxycarbonyl-2-thiazol-2-yl-1,4-dihydropyrimidin-6-yl]methyl]-3-oxo-5,6,8,8a-tetrahydro-1H-imidazo[1,5-a]pyrazin-2-yl]-2,2-dimethyl-propanoic acid]", "values": [{"measurement": "pEC50", "value": 6.84}]}, {"molecule": "COC(=O)C1=C(CN2CCN3C(=O)OC[C@H]3C2)NC(c2nccs2)=N[C@H]1c1ccc(F)cc1Cl", "note": "[Example 3, Methyl (4R)-6-[[(8aR)-3-oxo-5,6,8,8a-tetrahydro-1H-oxazolo[3,4-a]pyrazin-7-yl]methyl]-4-(2-chloro-4-fluoro-phenyl)-2-thiazol-2-yl-1,4-dihydropyrimidine-5-carboxylate]", "values": [{"measurement": "pEC50", "value": 7.64}]}, {"molecule": "CCOC(=O)C1=C(CN2CCN3C(=O)N(C(C)(C)C)C[C@@H]3[C@H]2CO)NC(c2nccs2)=N[C@H]1c1cccc(F)c1Cl", "note": "(single isomer, unassigned) [Example 103B]", "values": [{"measurement": "pEC50", "value": 8.00}]}]}
